Laboratory results published in ChEMBL document CHEMBL1125315, “Synthesis and evaluation of 2-pyridinone derivatives as HIV-1-specific reverse transcriptase inhibitors. 2. Analogues of 3-aminopyridin-2(1H)-one” (J Med Chem, 1992).
Each block holds one compound with its values, some of them ahead of it.

Legend:
[1] = molecular target: Human immunodeficiency virus type 1 reverse transcriptase (Human immunodeficiency virus 1, UniProt Q72547); assay: In vitro HIV-1 RT inhibitory activity using rC.dG as template-primer
[2] = tested on: MT4; assay: Compound was evaluated for antiviral activity in MT-4 cells. Cell culture inhibitor concentration (CIC95) is defined as concentration which inhibited >95% the spread of HIV-1 IIIb infection in susceptible cell culture; type: functional; settings: Homo sapiens, read-out: CIC95
[3] = tested on: H9; assay: Compound was evaluated for antiviral activity in H9 cells. Cell culture inhibitor concentration (CIC95) is defined as uM; type: functional; settings: Homo sapiens, read-out: CIC95
[4] = tested on: MT4; assay: Compound was evaluated for antiviral activity in MT-4 cells. Cell culture inhibitor concentration (CIC95) is defined as concentration which inhibited >95% the spread of HIV-1 IIIb infection in susceptible cell culture; value ranges from 0.025-0.050 uM; type: functional; settings: Homo sapiens, read-out: CIC95
[5] = tested on: H9; assay: Compound was evaluated for antiviral activity against H9 cells. Cell culture inhibitor concentration (CIC95) is defined as those which inhibited by >95% the spread of HIV-1 IIIb infection in susceptible cell culture; type: functional; settings: Homo sapiens, read-out: CIC95
[6] = tested on: MT4; assay: Compound was evaluated for antiviral activity against MT-4 cells. Cell culture inhibitor concentration (CIC95) is defined as those which inhibited by >95% the spread of HIV-1 IIIb infection in susceptible cell culture; value ranges from 0.012-0.025 uM; type: functional; settings: Homo sapiens, read-out: CIC95

SMILES: CCc1cc(NCc2coc3ccccc3c2=O)c(=O)[nH]c1C
- IC50 [1]: 1100 nM

SMILES: CCc1cc(NCc2cc3ccccc3s2)c(O)nc1C
- IC50 [1]: 500 nM

SMILES: CCc1cc(NCc2nc3c(F)ccc(Cl)c3o2)c(=O)[nH]c1C
- IC50 [1]: 105 nM

SMILES: CCc1cc(NCc2ccc3ccccc3c2)c(=O)n(C)c1C
- IC50 [1]: 11000 nM

SMILES: CCc1cc(NCc2cc3cccc(Cl)c3o2)c(O)nc1C
- IC50 [1]: 335 nM

SMILES: CCc1cc(NCc2cc3c(Cl)ccc(Cl)c3o2)c(O)nc1C
- IC50 [1]: 57 nM
- IC95 [2]: 50 nM

SMILES: CCc1cc(NCc2ccc3ccccc3n2)c(=O)[nH]c1C
- IC50 [1]: 530 nM

- IC50 [1]: > 300000 nM
SMILES: O=c1[nH]c2ccccc2cc1NCc1ccc2ccccc2c1

SMILES: CCc1cc(NCc2cc3cnccc3o2)c(=O)[nH]c1C
- IC50 [1]: 32300 nM

SMILES: CCc1cc(NCc2nc3c(O)cccc3o2)c(=O)[nH]c1C
- IC50 [1]: 440 nM

SMILES: CCc1cc(NCc2nc3c([N+](=O)[O-])cccc3o2)c(O)nc1C
- IC50 [1]: 24500 nM

SMILES: CCOC(=O)c1cc(NCc2nc3ccccc3o2)c(=O)[nH]c1C
- IC50 [1]: 1750 nM

SMILES: CCc1cc(NCc2cc3ccncc3o2)c(O)nc1C
- IC50 [1]: 105000 nM

SMILES: CC(=O)c1cc(NCc2nc3c(Cl)ccc(Cl)c3o2)c(O)nc1C
- IC50 [1]: 300 nM

SMILES: CCc1cc(NCc2nc3ccc(F)cc3o2)c(=O)[nH]c1C
- IC50 [1]: 1250 nM

SMILES: CCc1cc(NCc2nc3c(ccc4ccccc43)o2)c(O)nc1C
- IC50 [1]: 2700 nM

SMILES: CCc1cc(N(C)Cc2nc3c(C)ccc(C)c3o2)c(=O)[nH]c1C
- IC50 [1]: 103 nM

SMILES: CCSc1cc(NCc2nc3ccccc3o2)c(=O)[nH]c1C
- IC50 [1]: 430 nM

SMILES: CCc1cc(NCc2nc3c(Cl)cccc3o2)c(O)nc1C
- IC50 [1]: 150 nM

SMILES: Cc1[nH]c(=O)c(NCc2nc3c(Cl)ccc(Cl)c3o2)cc1C(C)O (configuration not stated)
- IC50 [1]: 1050 nM

SMILES: CCc1cc(NCc2ccc3ccccc3c2)c(=S)[nH]c1C
- IC50 [1]: 300 nM

SMILES: CSc1cc(NCc2nc3ccccc3o2)c(O)nc1C
- IC50 [1]: 190 nM

SMILES: CCc1cc(NCc2nc3cccc(CC)c3o2)c(O)nc1C
- IC50 [1]: 260 nM

SMILES: CCc1cc(NCc2nc3c(F)cccc3o2)c(=O)[nH]c1C
- IC50 [1]: 110 nM

SMILES: CCc1cc(NCc2nc3ncccc3o2)c(O)nc1C
- IC50 [1]: 1900 nM

SMILES: Cc1cc(C)c(NCc2nc3c(Cl)ccc(Cl)c3o2)c(=O)[nH]1
- IC50 [1]: 2850 nM

SMILES: CCc1cc(NC(C)c2ccc3ccccc3c2)c(O)nc1C (configuration not stated)
- IC50 [1]: 1130 nM

SMILES: CCc1cc(N(C)Cc2cc3c(Cl)ccc(Cl)c3o2)c(=O)[nH]c1C
- IC50 [1]: 1050 nM

SMILES: CCc1cc(NCc2ncc(-c3ccccc3)o2)c(=O)[nH]c1C
- IC50 [1]: 2350 nM

SMILES: CCc1cc(NCc2oc3ccccc3c2C)c(=O)[nH]c1C
- IC50 [1]: 1950 nM

SMILES: CCc1cc(N(C)Cc2nc3c(Cl)ccc(Cl)c3o2)c(=O)[nH]c1C
- IC50 [1]: 58 nM

SMILES: CCc1cc(NCc2nc3cccc(F)c3o2)c(=O)[nH]c1C
- IC50 [1]: 92 nM

SMILES: CCc1cc(NCc2nc3c(Cl)ccc(Cl)c3o2)c(S)nc1C
- IC50 [1]: 42 nM

SMILES: CCc1cc(NCc2nc3cc(F)ccc3o2)c(=O)[nH]c1C
- IC50 [1]: 470 nM

SMILES: CCc1cc(NCc2nc3ccc(C)cc3o2)c(=O)[nH]c1C
- IC50 [1]: 1650 nM

SMILES: CCc1cc(NCc2cnc3ccccc3c2)c(=O)[nH]c1C
- IC50 [1]: 335 nM

SMILES: Cc1[nH]c(=O)c(NCc2nc3ccccc3o2)cc1S(C)(=O)=O
- IC50 [1]: 1150 nM

SMILES: CCc1cc(NCc2ccoc2)c(O)nc1C
- IC50 [1]: 145000 nM

SMILES: CCc1cc(NCc2cc3ccccc3[nH]2)c(=O)[nH]c1C
- IC50 [1]: 4400 nM

SMILES: CCc1cc(NCc2cccc3ccccc23)c(=O)[nH]c1C
- IC50 [1]: 2100 nM

SMILES: CCc1cc(N(CC)Cc2nc3c(Cl)ccc(Cl)c3o2)c(O)nc1C
- IC50 [1]: 654 nM

SMILES: COc1cc(NCc2nc3c(Cl)ccc(Cl)c3o2)c(O)nc1C
- IC50 [1]: 115 nM

SMILES: CCc1cc(NCc2nc3c(OC)cccc3o2)c(=O)[nH]c1C
- IC50 [1]: 180 nM

SMILES: CCc1cc(NCc2cc3ccccc3o2)c(O)nc1C
- IC50 [1]: 330 nM

SMILES: CCc1cc(NCc2ccc3ccccc3c2)c(=O)[nH]c1C
- IC50 [1]: 460 nM

SMILES: Cc1nc(O)c(NCc2nc3ccccc3o2)cc1[S+](C)[O-] (configuration not stated)
- IC50 [1]: 31500 nM

SMILES: CCc1cc(NCc2ccco2)c(=O)[nH]c1C
- IC50 [1]: 29000 nM

SMILES: CSc1cc(NCc2nc3c(Cl)ccc(Cl)c3o2)c(O)nc1C
- IC50 [1]: 43 nM
- IC95 [2]: 100 nM

SMILES: CCc1cc(NCc2nc3cc(C)ccc3o2)c(O)nc1C
- IC50 [1]: 1250 nM

SMILES: CCc1cc(NCc2nc3ccccc3c(=O)[nH]2)c(=O)[nH]c1C
- IC50 [1]: 2500 nM

SMILES: CCc1cc(NC(C)c2cc3ccccc3o2)c(=O)[nH]c1C (configuration not stated)
- IC50 [1]: 970 nM

SMILES: CCc1cc(NCc2nc3c(o2)CCCC3)c(=O)[nH]c1C
- IC50 [1]: 280 nM

SMILES: CCc1cc(NCc2nc3cccc(Cl)c3o2)c(=O)[nH]c1C
- IC50 [1]: 65 nM

SMILES: CCc1cc(NCc2ccccn2)c(O)nc1C
- IC50 [1]: 15000 nM

SMILES: C=Cc1cc(NCc2nc3c(Cl)ccc(Cl)c3o2)c(=O)[nH]c1C
- IC50 [1]: 23 nM

SMILES: CCc1cc(NCc2nc3c(N)cccc3o2)c(O)nc1C
- IC50 [1]: 67000 nM

SMILES: CCc1cc(NCc2c[nH]c3ccccc23)c(O)nc1C
- IC50 [1]: 22500 nM

SMILES: CCc1cc(NCc2nc3cc4ccccc4cc3o2)c(=O)[nH]c1C
- IC50 [1]: 10000 nM

SMILES: CCc1cc(NCc2nc3c(C)ccc(C)c3o2)c(O)nc1C
- IC95 [3]: 100 nM
- IC95 [4]: 25 nM

SMILES: CCc1cc(NCc2nc3ccccc3o2)c(O)nc1C
- IC95 [2]: 200 nM

SMILES: CCc1c(C)[nH]c(=O)c(NCc2nc3ccccc3o2)c1C
- IC50 [1]: 600 nM

SMILES: CCc1cc(NCc2nc3c(F)ccc(F)c3o2)c(=O)[nH]c1C
- IC50 [1]: 70 nM

SMILES: CCc1cc(NCc2cccnc2)c(=O)[nH]c1C
- IC50 [1]: 300000 nM

SMILES: CCc1cc(NCc2ccccc2)c(=O)[nH]c1C
- IC50 [1]: 5330 nM

SMILES: CCc1cc(NCc2nc3ccccc3[nH]2)c(O)nc1C
- IC50 [1]: 7580 nM

SMILES: CCc1cc(NCc2nc3c(C)cccc3o2)c(O)nc1C
- IC50 [1]: 120 nM

SMILES: CCc1cc(NCc2nc3c(Cl)ccc(Cl)c3o2)c(O)nc1C [L-697661]
- IC95 [4]: 25 nM

SMILES: Cc1cn([C@H]2C[C@H](N=[N+]=[N-])[C@@H](CO)O2)c(=O)[nH]c1=O [ZIDOVUDINE]
- IC95 [5]: 20000 nM
- IC95 [6]: 12 nM
